Molecular target: T1, DkSCPL1 and DkSCPL2 co-expressed (Diospyros kaki, UniProt C6L1N2)
T1 sequence (C6L1N2 36-491): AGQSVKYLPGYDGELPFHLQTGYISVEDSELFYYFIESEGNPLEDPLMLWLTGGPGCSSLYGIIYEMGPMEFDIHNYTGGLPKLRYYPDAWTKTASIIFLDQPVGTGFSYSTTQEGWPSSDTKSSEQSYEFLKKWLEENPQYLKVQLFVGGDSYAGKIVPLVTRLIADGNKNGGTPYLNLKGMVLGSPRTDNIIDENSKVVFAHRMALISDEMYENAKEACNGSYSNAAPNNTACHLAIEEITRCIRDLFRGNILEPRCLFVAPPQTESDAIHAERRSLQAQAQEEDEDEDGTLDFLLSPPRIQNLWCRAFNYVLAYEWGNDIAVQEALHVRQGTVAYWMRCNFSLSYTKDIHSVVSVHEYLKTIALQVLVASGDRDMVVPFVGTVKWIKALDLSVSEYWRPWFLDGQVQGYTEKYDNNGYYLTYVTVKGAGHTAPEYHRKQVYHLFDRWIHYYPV
T1 sequence (A4PB66 1-452 partner): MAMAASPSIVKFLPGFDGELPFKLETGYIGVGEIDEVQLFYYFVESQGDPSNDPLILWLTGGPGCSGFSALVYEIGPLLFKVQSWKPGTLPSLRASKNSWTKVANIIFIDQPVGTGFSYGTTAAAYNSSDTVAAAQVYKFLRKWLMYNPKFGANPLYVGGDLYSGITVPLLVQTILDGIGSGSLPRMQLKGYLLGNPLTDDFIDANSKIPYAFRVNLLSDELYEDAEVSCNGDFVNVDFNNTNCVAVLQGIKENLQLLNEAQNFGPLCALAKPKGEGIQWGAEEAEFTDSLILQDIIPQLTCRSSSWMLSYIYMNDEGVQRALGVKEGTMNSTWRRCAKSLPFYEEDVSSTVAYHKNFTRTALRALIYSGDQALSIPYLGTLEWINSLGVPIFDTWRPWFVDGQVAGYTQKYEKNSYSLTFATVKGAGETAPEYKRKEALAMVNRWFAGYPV
Test: EGCG formation, UPLC-MS/MS, crude extract of N. benthamiana leaves
Assay type: biochemical
Details: 50 mM phosphate pH 6.0, 30 °C

Which “EGCG formation, UPLC-MS/MS, crude extract of N. benthamiana leaves” value (acyl donor βG) does the source give for Oc1cc(O)c2c(c1)O[C@H](c1cc(O)c(O)c(O)c1)[C@H](O)C2 [EGC] here?
Its value is “the two paralogs when co‐expressed catalyzed the formation of EGCG”.

For O=C(O[C@@H]1O[C@H](CO)[C@@H](O)[C@H](O)[C@H]1O)c1cc(O)c(O)c(O)c1 [βG], which “EGCG formation, UPLC-MS/MS, crude extract of N. benthamiana leaves” value (acyl acceptor EGC) is on record?
Its value is “the two paralogs when co‐expressed catalyzed the formation of EGCG”.
